Biological target: RORγt (Homo sapiens (Human), UniProt P51449)
Assay: Gal4 ligand binding assay (RORγt Gal fusion luciferase reporter assay in HEK293T cells)
Assay type: cell-based
Conditions: RORγt inverse agonists in RORγt Gal fusion assay
Procedure: The N-terminal DNA binding domains (DBD) of the native RORγ and RORγt receptors have been substituted with that of the yeast GAL4-DBD and stably transfected in HEK293T cells that also stably express luciferase under the regulation by upstream activation sequence of yeast Gal4. These cells constitutively express high level RORγ activity due to binding of endogenous co-factors. Both agonist and inverse agonist activity can be detected. The assay was performed according to kit manufacturer's instructions as follows. 10 mM compound stocks were diluted serially 1:3 with DMSO and further diluted with provided media to generate 10 titration points from 60 μM to 3 nM. These treatment conditions were added to the plates as 2× media in 100 μL volume. Each plate includes a positive control with 10 titration points as well as 6 negative control wells with vehicle only, with final DMSO concentration of 0.2%. RORγ reporter cells were rapidly thawed and added to the plates in 100 μL volume. The plates were incubated for 24 h in a 37° C. humidified 5% CO2 incubator. Media was removed before the addition of room temperature luciferous detection substrate. After 5 minute incubation, relative light units (RLUs) were quantified using a plate reading luminometer. Data was normalized to […] with only 0.2%0DMSO. Before establishing internal controls, ursolic acid was used as control.

Sequence of RORγt (P51449 269-508): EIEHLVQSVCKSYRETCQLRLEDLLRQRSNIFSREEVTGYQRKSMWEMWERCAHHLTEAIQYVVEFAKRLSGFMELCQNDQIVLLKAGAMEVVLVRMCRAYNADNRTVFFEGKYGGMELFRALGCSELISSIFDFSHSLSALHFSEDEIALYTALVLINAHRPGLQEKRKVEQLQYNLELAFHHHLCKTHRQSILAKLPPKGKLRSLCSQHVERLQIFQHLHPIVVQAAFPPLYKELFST

Compound	IC50 [nM]
CC(C)(C)c1cc(CN2CC3(C2)CN(S(C)(=O)=O)C3)ccc1-c1ccc(C(O)(C(F)(F)F)C(F)(F)F)cc1 [Example 23, 2-(2′-(tert-butyl)-4′-((6-(methylsulfonyl)-2,6-diazaspiro[3.3]heptan-2-yl)methyl)-[1,1′-biphenyl]-4-yl)-1,1,1,3,3,3-hexafluoropropan-2-ol]	< 50
CCc1cc(CN2CC3(CCS(=O)(=O)C3)C2)ccc1-c1ccc(C(O)(C(F)(F)F)C(F)(F)F)cc1 [Example 24, 2-((2-ethyl-4′-(1,1,1,3,3,3-hexafluoro-2-hydroxypropan-2-yl)-[1,1′-biphenyl]-4-yl)methyl)-6-thia-2-azaspiro[3.4]octane 6,6-dioxide]	50 to 250
CCc1cc(CN2CC3(C2)CN(S(C)(=O)=O)C3)ccc1-c1ccc(C(O)(C(F)(F)F)C(F)(F)F)cc1F [Example 34, 2-(2′-ethyl-2-fluoro-4′-((6-(methylsulfonyl)-2,6-diazaspiro[3.3]heptan-2-yl)methyl)-[1,1′-biphenyl]-4-yl)-1,1,1,3,3,3-hexafluoropropan-2-ol]	< 50
CCc1cc(CN2CC3(C2)CN(S(C)(=O)=O)C3)c(F)cc1-c1ccc(C(O)(C(F)(F)F)C(F)(F)F)cc1 [Example 36, 2-(2′-ethyl-5′-fluoro-4′-((6-(methylsulfonyl)-2,6-diazaspiro[3.3]heptan-2-yl)methyl)-[1,1′-biphenyl]-4-yl)-1,1,1,3,3,3-hexafluoropropan-2-ol]	< 50
CCC(C)c1cc(CN2CC3(C2)CN(S(C)(=O)=O)C3)ccc1-c1ccc(C(O)(C(F)(F)F)C(F)(F)F)cc1 (stereo not shown) [Example 13, 2-(2′-(sec-butyl)-4′-((6-(methylsulfonyl)-2,6-diazaspiro[3.3]heptan-2-yl)methyl)-[1,1′-biphenyl]-4-yl)-1,1,1,3,3,3-hexafluoropropan-2-ol]	< 50
CCc1cc(CN2CC3(C2)CN(S(C)(=O)=O)C3)ccc1-c1ccc(C(O)(C(F)(F)F)C(F)(F)F)cc1C [Example 39, 2-(2′-ethyl-2-methyl-4′-((6-(methylsulfonyl)-2,6-diazaspiro[3.3]heptan-2-yl)methyl)-[1,1′-biphenyl]-4-yl)-1,1,1,3,3,3-hexafluoropropan-2-ol]	< 50
CCc1c(-c2ccc(C(O)(C(F)(F)F)C(F)(F)F)cc2)ccc(CN2CC3(C2)CN(S(C)(=O)=O)C3)c1F [Example 37, 2-(2′-ethyl-3′-fluoro-4′-((6-(methylsulfonyl)-2,6-diazaspiro[3.3]heptan-2-yl)methyl)-[1,1′-biphenyl]-4-yl)-1,1,1,3,3,3-hexafluoropropan-2-ol]	< 50
CC(C)c1cc(CN2CC3(C2)CN(S(C)(=O)=O)C3)c(F)c(F)c1-c1ccc(C(O)(C(F)(F)F)C(F)(F)F)cc1 [Example 14, 2-(2′,3′-difluoro-6′-isopropyl-4′-((6-(methylsulfonyl)-2,6-diazaspiro[3.3]heptan-2-yl)methyl)-[1,1′-biphenyl]-4-yl)-1,1,1,3,3,3-hexafluoropropan-2-ol]	< 50
CS(=O)(=O)N1CC2(CN(Cc3ccc(-c4ccc(C(O)(C(F)(F)F)C(F)(F)F)cc4)c(Br)c3)C2)C1 [Example 45, 2-(2′-bromo-4′-((6-(methylsulfonyl)-2,6-diazaspiro[3.3]heptan-2-yl)methyl)-[1,1′-biphenyl]-4-yl)-1,1,1,3,3,3-hexafluoropropan-2-ol]	50 to 250
CCc1cc(CN2CC3(CC[S+]([O-])C3)C2)ccc1-c1ccc(C(O)(C(F)(F)F)C(F)(F)F)cc1 (stereo not shown) [Example 25, 2-((2-ethyl-4′-(1,1,1,3,3,3-hexafluoro-2-hydroxypropan-2-yl)-[1,1′-biphenyl]-4-yl)methyl)-6-thia-2-azaspiro[3.4]octane 6-oxide]	> 250
C=C(C)c1cc(CN2CC3(C2)CN(S(C)(=O)=O)C3)ccc1-c1ccc(C(O)(C(F)(F)F)C(F)(F)F)cc1 [Example 44, 1,1,1,3,3,3-hexafluoro-2-(4′-((6-(methylsulfonyl)-2,6-diazaspiro[3.3]heptan-2-yl)methyl)-2′-(prop-1-en-2-yl)-[1,1′-biphenyl]-4-yl)propan-2-ol]	< 50
CCc1cc(CN2CC3(CCCN(S(C)(=O)=O)C3)C2)ccc1-c1ccc(C(O)(C(F)(F)F)C(F)(F)F)cc1 [Example 19, 2-(2′-ethyl-4′-((6-(methylsulfonyl)-2,6-diazaspiro[3.5]nonan-2-yl)methyl)-[1,1′-biphenyl]-4-yl)-1,1,1,3,3,3-hexafluoropropan-2-ol]	50 to 250
CCc1cc(CN2CC3(C2)CN(S(=O)(=O)CC)C3)ccc1-c1ccc(C(O)(C(F)(F)F)C(F)(F)F)cc1 [Example 22, 2-(2′-ethyl-4′-((6-(ethylsulfonyl)-2,6-diazaspiro[3.3]heptan-2-yl)methyl)-[1,1′-biphenyl]-4-yl)-1,1,1,3,3,3-hexafluoropropan-2-ol]	50 to 250
CS(=O)(=O)N1CC2(CN(Cc3ccc(-c4ccc(C(O)(C(F)(F)F)C(F)(F)F)cc4)c(Cl)c3)C2)C1 [Example 47, 2-(2′-chloro-4′-((6-(methylsulfonyl)-2,6-diazaspiro[3.3]heptan-2-yl)methyl)-[1,1′-biphenyl]-4-yl)-1,1,1,3,3,3-hexafluoropropan-2-ol]	> 250
CCc1cc(CN2CCC3(C2)CN(S(C)(=O)=O)C3)ccc1-c1ccc(C(O)(C(F)(F)F)C(F)(F)F)cc1 [Example 30, 2-(2′-ethyl-4′-((2-(methylsulfonyl)-2,6-diazaspiro[3.4]octan-6-yl)methyl)-[1,1′-biphenyl]-4-yl)-1,1,1,3,3,3-hexafluoropropan-2-ol]	< 50

The next lines start with the values.

IC50 [nM]	Compound
< 50	CCc1c(F)c(CN2CC3(C2)CN(S(C)(=O)=O)C3)cc(F)c1-c1ccc(C(O)(C(F)(F)F)C(F)(F)F)cc1C [Example 68, 2-(2′-ethyl-3′,6′-difluoro-2-methyl-4′-((6-(methylsulfonyl)-2,6-diazaspiro[3.3]heptan-2-yl)methyl)-[1,1′-biphenyl]-4-yl)-1,1,1,3,3,3-hexafluoropropan-2-ol]
< 50	CCc1cc(C(O)(C(F)(F)F)C(F)(F)F)ccc1-c1c(F)cc(CN2CC3(C2)CN(S(C)(=O)=O)C3)c(F)c1C(C)C [Example 85, 2-(2-ethyl-3′,6′-difluoro-2′-isopropyl-4′-((6-(methylsulfonyl)-2,6-diazaspiro[3.3]heptan-2-yl)methyl)-[1,1′-biphenyl]-4-yl)-1,1,1,3,3,3-hexafluoropropan-2-ol]
< 50	CCc1c(F)c(CN2CC3(C2)CN(S(C)(=O)=O)C3)cc(F)c1-c1ccc(C(O)(C(F)(F)F)C(F)(F)F)cc1Cl [Example 72, 2-(2-chloro-2′-ethyl-3′,6′-difluoro-4′-((6-(methylsulfonyl)-2,6-diazaspiro[3.3]heptan-2-yl)methyl)-[1,1′-biphenyl]-4-yl)-1,1,1,3,3,3-hexafluoropropan-2-ol]
50 to 250	CC(C)c1c(F)c(CN2CCC3(C2)CN(S(C)(=O)=O)C3)cc(F)c1-c1ccc(C(O)(C(F)(F)F)C(F)(F)F)cc1 [Example 74, 2-(3′,6′-difluoro-2′-isopropyl-4′-((2-(methylsulfonyl)-2,6-diazaspiro[3.4]octan-6-yl)methyl)-[1,1′-biphenyl]-4-yl)-1,1,1,3,3,3-hexafluoropropan-2-ol]
> 250	Cc1cc(C(O)(C(F)(F)F)C(F)(F)F)ccc1-c1cccc(N2CC3(C2)CN(S(C)(=O)=O)C3)n1 [Example 67, 1,1,1,3,3,3-hexafluoro-2-(3-methyl-4-(6-(6-(methylsulfonyl)-2,6-diazaspiro[3.3]heptan-2-yl)pyridin-2-yl)phenyl)propan-2-ol]
< 50	CCc1c(F)c(CN2CC3(C2)CN(S(C)(=O)=O)C3)cc(F)c1-c1ccc(C(O)(C(F)(F)F)C(F)(F)F)cc1F [Example 70, 2-(2′-ethyl-2,3′,6′-trifluoro-4′-((6-(methylsulfonyl)-2,6-diazaspiro[3.3]heptan-2-yl)methyl)-[1,1′-biphenyl]-4-yl)-1,1,1,3,3,3-hexafluoropropan-2-ol]
50 to 250	CCc1cc(CN2CC3(C2)CN(S(C)(=O)=O)C3)ccc1-c1ccc(C(O)(C(F)(F)F)C(F)(F)F)cn1 [Example 63, 2-(6-(2-ethyl-4-((6-(methylsulfonyl)-2,6-diazaspiro[3.3]heptan-2-yl)methyl)phenyl)pyridin-3-yl)-1,1,1,3,3,3-hexafluoropropan-2-ol]
< 50	CCc1cc(CN2CC3(C2)CN(S(C)(=O)=O)C3)ccc1-c1ccc(C(O)(C(F)(F)F)C(F)(F)F)cc1Cl [Example 75, 2-(2-chloro-2′-ethyl-4′-((6-(methylsulfonyl)-2,6-diazaspiro[3.3]heptan-2-yl)methyl)-[1,1′-biphenyl]-4-yl)-1,1,1,3,3,3-hexafluoropropan-2-ol]
< 50	CS(=O)(=O)N1CC2(CN(Cc3cc(F)c(-c4ccc(C(O)(C(F)(F)F)C(F)(F)F)cc4F)c(C4CC4)c3F)C2)C1 [Example 91, 2-(2′-cyclopropyl-2,3′,6′-trifluoro-4′-((6-(methylsulfonyl)-2,6-diazaspiro[3.3]heptan-2-yl)methyl)-[1,1′-biphenyl]-4-yl)-1,1,1,3,3,3-hexafluoropropan-2-ol]
< 50	Cc1cc(C(O)(C(F)(F)F)C(F)(F)F)ccc1-c1cc(F)c(CN2CC3(C2)CN(S(C)(=O)=O)C3)cc1C(C)C [Example 79, 1,1,1,3,3,3-hexafluoro-2-(5′-fluoro-2′-isopropyl-2-methyl-4′-((6-(methylsulfonyl)-2,6-diazaspiro[3.3]heptan-2-yl)methyl)-[1,1′-biphenyl]-4-yl)propan-2-ol]

From patent US11242350B2, “Spirocyclic ROR-gamma modulators” (Escalier Biosciences B.V., priority 2018, dated 2022)
